This is an account of results in patent publication US9732088B2, “C2-carbocyclic iminothiazine dioxides as BACE inhibitors, compositions, and their use” (Merck Sharp & Dohme Corp., priority 2014, dated 2017).

For series [1], the target named is rat Mdr1a (P-gp) (Rattus norvegicus, UniProt Q6PSM0). The experiment in a line: P-Glycoprotein (P-gp) Efflux Susceptibility Assay. Format: in vitro ADME. The settings on record: LLC-PK1, pH 7.4; rat LLC-Mdr1a cells, B-A/A-B Papp ratio at 3 h; method 0.1 μM; read-out: P-gp efflux assay (rMDR1a BAAB). As for the experimental part:
Assay 6: P-Glycoprotein (P-Gp) Efflux Susceptibility Assay
As P-gp is expressed at the blood-brain-barrier, among other tissues, lower P-gp efflux ratio values are associated with a better ability to cross the blood-brain-barrier to reach the site of BACE-1 expression in the central nervous system. P-gp efflux ratios are measured in cellular assays using cell lines that express P-gp from a number of species including rat, monkey, and human. The following assay was used to measure the rat P-gp efflux ratios, which are believed to be the most sensitive measure of P-gp susceptibility, for the compounds of the invention (test compounds) reported in the tables below.
The bidirectional transport of test compounds was conducted across pig kidney epithelial (LLC-PK1) cell monolayers. Native LLC-PK1 cells were obtained from The Netherlands Cancer Institute (Amsterdam, The Netherlands), and used under a license agreement. LLC-PK1 cells expressing a cDNA encoding rat Mdr1a (rat LLC-Mdr1a) were made in-house by stable transfection of LLC-PK1 cells with a rat MDR1 cDNA. LLC-PK1 and rat LLC-Mdr1a cell lines were cultured in 96-well transwell culture plates. […] Substrate solution (150 μL) was added to either the apical (A) or the basolateral (B) compartment of the culture plate, and buffer (150 μL; HBSS, 10 mM HEPES, pH 7.4) was added to the compartment opposite to that containing the compound. At t=3 h, 50 μL samples were removed from both sides of monolayers dosed with test compound and placed in 96 well plates, internal standard (50 μL 1 μM labetolol) was added to the samples. Samples were analyzed by LC/MS/MS using an Applied Biosystems SCIEX API 5000 triple quadruple mass spectrometry (Concord, ON, Canada) with a TurbolonSpray ion source in the positive ion mode. A Thermo Scientific Transcend LX-2 system (Franklin, Mass.) was coupled to the API 5000 with a flow rate of 800 μL/min to direct sample into the mass spectrometer. A Waters ACQUITY UPLC T3 (2×30 mm, 1.7 μm; Milford, Mass.) column was used for sample analysis. Mobile phase A consisted of 0.1% formic acid in water. Mobile phase B was acetonitrile with 0.1% formic acid. A gradient elution program was utilized where the solvent composition was held at 5% B for 0.25 min, changed from 5% B to 95% B at 0.25 min, and followed by holding at 95% B for 0.5 min, then, went back to 5% B at 0.75 min. The column was then re-equilibrated at the original solvent composition for 0.5 min. Mass spectrometric detection was accomplished by multiple reaction monitoring (MRM) of transitions unique to each compound. Sample concentration was obtained by extrapolation from the standard curve. Verapamil (1 μM) was used as the positive control to assess the functional activity of Pgp. The experiment was performed in triplicate.
The Papp was calculated by the following formula for samples taken at t=3 h:
[formula] where “Volume of Receptor Chamber” is 0.15 mL, “Area of membrane” is 0.11 cm^2, the “Initial Concentration” is the sum of the concentration measured in the donor compartment plus the concentration measured in the receiver compartment at t=3 h, “Δ in Concentration” is the concentration in the receiver compartment at 3 h, and “Δ in Time” is the incubation time (3×60×60=10800 s). Papp was expressed as 10^−6 cm/s.
The Papp reported in the table below is the average of the Papp for transport from A to B and Papp for transport from B to A at t=3 hr.
The B-A/A-B ratio (BAAB) was calculated by dividing the Papp from B to A by the Papp from A to B at t=3 h: […]

Series [2] deals with HepG2 cells. The series is described as follows: In Vitro Phospholipidosis Assay. The settings on record: 20 μM, 24 hours, normalized to DMSO. The format is cell-based. The text has this:
[formula] Assay 7: In Vitro Phospholipidosis Assay
Drug-induced phospholipidosis (PL) is characterized by intracellular accumulation of phospholipids with lamellular bodies, and may result from impaired phospholipid metabolism in the lysosome (Anderson et al., 2006, FEBS Letter, 580, 5533-5540), and many compounds known to cause drug-induced PL are also associated with adverse drug reactions. Using a method described in the literature (Bhandari et al., 2008, Assay and Drug Dev. Tech., 6(3), 407-419), an in vitro cellular assay can provide data that can determine the PL potential of test compounds. In this assay, compounds that lower values for mean inclusion count of a fluorescent phospholipid (described below) versus control are associated with reduced potential for PL.
HepG2 cells were dispensed into 96-well collagen I coated plates at an initial density of 2.0×10^5 cells in 200 μL complete culturing medium (MEM Media w/Earle's Balanced Salt Solution supplemented with 10 IU penicillin, 10 μg/mL streptomycin, and 10% heat inactivated fetal bovine serum). Cells were incubated overnight at 37° C. with 5% CO2, 89% humidity prior to treatment.
A solution of fluorescently labeled phospholipid N-(7-nitrobenz-2-oxa-1,3-diazol-4-yl)-1,2-dihexadecanoyl-sn-glycero-3-phosphoethanolamine (NBD-PE) was prepared at a concentration of 10 mM in absolute ethanol. Dissolution of the NBD-PE was facilitated by sonication in a room temperature water bath for 30 minutes. NBD-PE medium was prepared by diluting NBD-PE stock to a final concentration of 50 μM in complete culturing medium, filtering (pore size, 0.22 μm) prior to use.
Compound treatment stocks were prepared in dimethyl sulfoxide at 500× final concentrations. Working treatment solutions were prepared by diluting compound stocks into NBD-PE medium with DMSO serving as the vehicle control. Treatment concentration was 20 μM. Amiodarone ((2-{4-[(2-butyl-1-benzofuran-3-yl)carbonyl]-2,6-diiodophenoxy}ethyl)diethylamine) served as the assay positive control at the same concentration. All treatments were tested in triplicate for 24 hours.
Following treatment, cultures were rinsed once with Hank's Balanced Salt Solution (HBSS) containing no phenol red. Cultures were then incubated for 30 minutes at 37° C. with […] Hoechst 33342 nuclear stain and […] cell tracker orange cytoplasm stain. After incubation, cells were rinsed once with HBSS and then fixed in 2% formalin solution.
Cultures were imaged using the IN Cell Analyzer 2000 imaging system. One set of images were acquired with the 4× objective using the appropriate Hoechst filter settings to acquire a full-well cell count. Another set of images were acquired to evaluate treatment-related phospholipidosis with the 20× objective.
Images were analyzed using custom algorithms created in the IN Cell Workstation software using NBD-PE inclusion count in the cell cytoplasm as and endpoint associated with phospholipidosis. Data were expressed as fold over control, normalized to the DMSO vehicle control response.

In series [3] the target is BACE-1 (Homo sapiens (Human), UniProt P56817). The conditions noted are these: data reported in US′109; read-out: BACE-1 Ki (nM) (ii) Data reported in US′109; cited from earlier work.
Sequence of BACE-1 (P56817 46-501, species assumed): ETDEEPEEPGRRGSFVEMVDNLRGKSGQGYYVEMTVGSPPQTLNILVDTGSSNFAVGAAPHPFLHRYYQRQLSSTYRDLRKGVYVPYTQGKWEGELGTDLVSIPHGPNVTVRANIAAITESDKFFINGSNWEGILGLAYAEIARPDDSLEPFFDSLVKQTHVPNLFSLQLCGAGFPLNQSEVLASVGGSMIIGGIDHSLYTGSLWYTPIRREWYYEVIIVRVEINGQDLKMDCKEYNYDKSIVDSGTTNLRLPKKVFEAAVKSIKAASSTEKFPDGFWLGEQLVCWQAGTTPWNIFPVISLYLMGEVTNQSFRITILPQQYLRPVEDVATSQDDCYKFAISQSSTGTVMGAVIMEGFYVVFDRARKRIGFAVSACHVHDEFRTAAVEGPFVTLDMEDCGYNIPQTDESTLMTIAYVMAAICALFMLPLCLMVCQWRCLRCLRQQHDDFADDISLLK
Series [4] deals with CSF Aβ40. The settings on record: cited from earlier work.

Sequence of rat Mdr1a (P-gp) (Q6PSM0 1-1272): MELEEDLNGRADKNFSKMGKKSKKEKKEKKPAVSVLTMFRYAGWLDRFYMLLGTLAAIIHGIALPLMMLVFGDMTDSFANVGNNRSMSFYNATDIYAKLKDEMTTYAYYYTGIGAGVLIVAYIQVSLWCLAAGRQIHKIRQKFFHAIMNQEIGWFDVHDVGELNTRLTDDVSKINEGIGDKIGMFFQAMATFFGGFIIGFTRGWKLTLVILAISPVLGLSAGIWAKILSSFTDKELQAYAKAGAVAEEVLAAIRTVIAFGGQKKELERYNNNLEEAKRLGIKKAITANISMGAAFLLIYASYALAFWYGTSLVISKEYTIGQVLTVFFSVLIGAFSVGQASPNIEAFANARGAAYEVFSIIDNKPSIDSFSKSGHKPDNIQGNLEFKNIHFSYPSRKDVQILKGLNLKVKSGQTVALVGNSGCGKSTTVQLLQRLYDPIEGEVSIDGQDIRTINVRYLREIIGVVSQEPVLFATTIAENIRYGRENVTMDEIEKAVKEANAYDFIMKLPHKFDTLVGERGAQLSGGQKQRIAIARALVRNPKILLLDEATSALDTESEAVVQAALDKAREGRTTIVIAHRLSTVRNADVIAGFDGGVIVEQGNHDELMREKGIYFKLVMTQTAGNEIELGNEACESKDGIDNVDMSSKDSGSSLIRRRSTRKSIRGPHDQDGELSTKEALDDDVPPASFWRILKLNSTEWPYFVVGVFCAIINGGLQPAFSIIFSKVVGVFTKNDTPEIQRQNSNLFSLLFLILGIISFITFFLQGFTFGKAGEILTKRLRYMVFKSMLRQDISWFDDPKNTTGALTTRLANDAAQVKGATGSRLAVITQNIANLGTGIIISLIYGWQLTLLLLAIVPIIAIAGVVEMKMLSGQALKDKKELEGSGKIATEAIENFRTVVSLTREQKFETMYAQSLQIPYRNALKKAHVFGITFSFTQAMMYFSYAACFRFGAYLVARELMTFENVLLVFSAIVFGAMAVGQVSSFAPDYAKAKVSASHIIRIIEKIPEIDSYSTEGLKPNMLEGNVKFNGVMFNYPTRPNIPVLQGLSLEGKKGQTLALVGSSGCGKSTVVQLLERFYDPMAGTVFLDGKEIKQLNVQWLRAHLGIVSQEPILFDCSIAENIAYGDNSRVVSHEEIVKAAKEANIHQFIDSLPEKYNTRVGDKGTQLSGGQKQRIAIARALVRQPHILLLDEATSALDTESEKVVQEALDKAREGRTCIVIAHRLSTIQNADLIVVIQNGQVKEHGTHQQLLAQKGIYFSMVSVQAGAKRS

In the case of `C[C@@]1(c2nc(Nc3nccc4cc(C#N)cnc34)ncc2F)CS(=O)(=O)[C@@](C)(C2CC2)C(N)=N1` [Example 5, 8-({4-[(3R,6S)-6-cyclopropyl-5-imino-3,6-dimethyl-1,1-dioxidothiomorpholin-3-yl]-5-fluoropyrimidin-2-yl}amino)-1,7-naphthyridine-3-carbonitrile], the efflux ratio at 3 h in series [1] is 31. In addition, the “In Vitro Phospholipidosis Assay: Mean NBD-PE Inclusion Count (Fold over control)” value in series [2] worked out at 1.3 Fold over control.
Consider `COc1cnc2c(Nc3ccc(F)c([C@]4(C)CS(=O)(=O)[C@@](C)(C5CC5)C(N)=N4)c3)nccc2c1` [Example 14, N-{3-[(3R,6S)-6-cyclopropyl-5-imino-3,6-dimethyl-1,1-dioxidothiomorpholin-3-yl]-4-fluorophenyl}-3-methoxy-1,7-naphthyridin-8-amine], for which the efflux ratio at 3 h in series [1] stood at 2.9.
On the same count and under the same terms, the same measure for `C[C@@]1(c2cc(Nc3ncnc4cc(C#N)cnc34)ccc2F)CS(=O)(=O)[C@@](C)(C2CC2)C(N)=N1` [Example 16, 4-({3-[(3R,6S)-6-cyclopropyl-5-imino-3,6-dimethyl-1,1-dioxidothiomorpholin-3-yl]-4-fluorophenyl}amino)pyrido[3,2-d]pyrimidine-7-carbonitrile]: 31.
As to `COc1cnc2c(Nc3cc([C@]4(C)CS(=O)(=O)[C@@](C)(C5CC5)C(N)=N4)c(F)cn3)nccc2c1` [Example 6, N-{4-[(3R,6S)-6-cyclopropyl-5-imino-3,6-dimethyl-1,1-dioxidothiomorpholin-3-yl]-5-fluoropyridin-2-yl}-3-methoxy-1,7-naphthyridin-8-amine], in series [1], the efflux ratio at 3 h came out at 1.5. For the same compound, the “In Vitro Phospholipidosis Assay: Mean NBD-PE Inclusion Count (Fold over control)” value in series [2] is given as 3.1 Fold over control.
Taken in the same sequence, the figures for `COc1cnc2c(Nc3ccc(F)c([C@]4(C)CS(=O)(=O)[C@@](C)(C5CC5)C(N)=N4)c3)ncnc2n1` [Example 22, (2S,5R)-2-cyclopropyl-5-(2-fluoro-5-((7-methoxypteridin-4-yl)amino)phenyl)-3-imino-2,5-dimethylthiomorpholine 1,1-dioxide] were 26 and 0.9 Fold over control.
`C[C@@]1(c2cc(Nc3nccc4cc(C#N)cnc34)ccc2F)CS(=O)(=O)[C@@](C)(C2CC2)C(N)=N1` [Example 18, 8-({3-[(3R,6S)-6-cyclopropyl-5-imino-3,6-dimethyl-1,1-dioxidothiomorpholin-3-yl]-4-fluorophenyl}amino)-1,7-naphthyridine-3-carbonitrile]: in series [1], the efflux ratio at 3 h was determined as 11.
Broadly, the Ki is the dissociation constant of the complex between target and ligand, obtained from inhibition or displacement. With `COc1cnc2c(Nc3ccc(F)c([C@]4(C)CS(=O)(=O)C(C)(C)C(N)=N4)c3)nccc2n1` [Ex 47 of WO2014059185, reference compound], the efflux ratio at 3 h in series [1] is 7.9. Also, in series [3], the Ki is 2.9 nM. For the same compound, in series [4], the “Aβ reduction in vivo in rat (Δ% CSF Aβ40 @ 10 mpk) (ii) Data reported in US′109” value is reported as −82%. In series [2], the “In Vitro Phospholipidosis Assay: Mean NBD-PE Inclusion Count (Fold over control)” value turned out to be 13 Fold over control.
